Test results: paper PMC7126984 (International Journal of Antimicrobial Agents, 2008)
Converted amounts (≈) assume the structure as drawn.

Legend:
[1] = tested on: Japanese encephalitis virus (JEV) strain T1P1; test: Plaque reduction assay, JEV in TE-671 cells; details: for TI (ratio of CC50 to IC50): JEV, TE-671 cells; for IC50: Japanese encephalitis virus; for inhibition of JEV replication in cell culture assay: dose-dependent plaque reduction assay
[2] = MTT cytotoxicity test in TE-671 cells; details: human, TE-671 medulloblastoma cells
[3] = MTT cytotoxicity test in HL-CZ cells; details: human, HL-CZ promonocyte cells
IFNα expression = test: ELISA for detection of IFNα expression in TE-671 cells; format: cell-based, human; details: 48 h incubation
[4] = tested on: Japanese encephalitis virus (JEV) strain T1P1; test: Plaque reduction assay, JEV in HL-CZ cells; details: for TI (ratio of CC50 to IC50): JEV, HL-CZ cells; for IC50: Japanese encephalitis virus, 48 h
[5] = tested on: interferon-stimulated response element (ISRE) promoter; test: Dual-luciferase cis-reporter assay pISRE-Luc in HL-CZ cells; format: cell-based, human; details: 1 μg/mL, 4 h, normalised by Renilla luciferase, vs untreated cells
[6] = tested on: human protein kinase R (PKR) mRNA; test: Real-time RT-PCR of PKR mRNA in HL-CZ cells; format: cell-based; details: 1 μg/mL, normalised to GAPDH, vs untreated cells
[7] = tested on: 2′,5′-oligoadenylate synthetase (OAS) mRNA; test: Real-time RT-PCR of OAS mRNA in HL-CZ cells; format: cell-based, human; details: 1 μg/mL, normalised to GAPDH, vs untreated cells
[8] = tested on: TE-671 medulloblastoma cells; test: MTT cytotoxicity test in TE-671 cells; details: TE-671 cells, 48 h treatment, MTT assay
[9] = tested on: nitric oxide (NO) production; test: NO production by DAF-2 DA fluorescence in HL-CZ cells; format: cell-based, human; details: compared with the control and shikonin
[10] = tested on: gamma-activated sequence (GAS) promoter; test: Dual-luciferase cis-reporter assay pGAS-Luc in HL-CZ cells; format: cell-based, human; details: 1 μg/mL, 4 h, normalised by Renilla luciferase, vs untreated cells
rhinovirus = details: cited from earlier work
enterovirus 71 (EV71) [11] = test: Plaque reduction assay, EV71 in TE-671 cells; details: for IC50: Enterovirus A
enterovirus 71 (EV71) [12] = test: Plaque reduction assay, EV71 in HL-CZ cells
[13] = 1 μg/mL, TE-671 and HL-CZ cells, 12, 24 and 48 h

SMILES | TI (ratio of CC50 to IC50) [1] | IC50 ([1]; TE-671, 48 h) | CC50 at 48 h [2] | CC50 at 48 h [3] | level of IFNα expression, dose dependence (IFNα expression) | TI (ratio of CC50 to IC50) [4] | IC50 [4] | inhibition of JEV replication in cell culture assay [1] | increase of promoter activity of pISRE-Luc [5] | increase of PKR mRNA [6] | increase of OAS mRNA [7] | NO production (DAF signal) [9] | increase of promoter activity of pGAS-Luc [10] | also measured
COc1ccc([C@@H]2CC(=O)c3c(O)cc(O)cc3O2)cc1O [Hesperetin, hesperetin] | 159 | 3.6 ± 0.5 µg/mL (≈ 11.9 µM) | 574 µg/mL (≈ 1900 µM) | – | – | – | – | – | – | – | – | – | – | –
CC(C)=CC[C@@H](O)C1=CC(=O)c2c(O)ccc(O)c2C1=O [Shikonin, shikonin] | 835.2 | 2.1 ± 0.5 µg/mL (≈ 7.28 µM) | 1750 µg/mL (≈ 6080 µM) | > 3000 µg/mL | dose-dependent increase | >2500 | 1.2 ± 0.2 µg/mL (≈ 4.16 µM) | dose-dependent inhibition | ca. 1.2 fold | 1087 fold | 5 fold | – | – | –
O.Oc1cc(O)c2c(c1)O[C@H](c1ccc(O)c(O)c1)[C@@H](O)C2 [Catechin, catechin] | – | – | – | – | – | – | – | – | – | – | – | – | – | CC50 [8]: >3000 µg/mL
COC(=O)C1=CCCN(C)C1 [Arecoline, arecoline] | >92.3 | 32.5 ± 0.4 µg/mL (≈ 209 µM) | > 3000 µg/mL | > 3000 µg/mL | dose-dependent increase | >285.7 | 10.5 ± 0.3 µg/mL (≈ 67.7 µM) | dose-dependent inhibition | – | – | – | greater DAF signal | 1.8 fold | –
O=C1c2cccc(O)c2C(=O)c2c(O)cc(CO)cc21 [Aloe-emodin, 1,8-dihydroxy-3-hydroxymethyl-anthraquinone] | 1743 | 1.51 ± 0.05 µg/mL (≈ 5.59 µM) | 2630 µg/mL (≈ 9740 µM) | 2880 µg/mL (≈ 10700 µM) | dose-dependent increase | 5762 | 0.5 ± 0.02 µg/mL (≈ 1.85 µM) | dose-dependent inhibition | ca. 2.14 fold | 1294.4 fold | 8.6 fold | greater DAF signal | ~2.03 fold | antiviral effect on the replication of rhinovirus (rhinovirus): no antiviral effect; time-dependent inhibition of EV71 replication (enterovirus 71 (EV71) [11]; [13]): significantly inhibited; TI (ratio of CC50 to IC50) (enterovirus 71 (EV71) [11]; EV71, TE-671 cells): 18 800; IC50 (enterovirus 71 (EV71) [11]; EV71, TE-671, 48 h): 0.14 ± 0.04 µg/mL (≈ 0.518 µM); IC50 (enterovirus 71 (EV71) [11]; EV71, TE-671, read-out: IC50 for EV71): 0.14 to 0.52 µg/mL (≈ 0.518 to 1.92 µM); therapeutic index (TI) for anti-EV71 activity (enterovirus 71 (EV71) [11]; over TE-671 and HL-CZ cells): > 5000; TI (ratio of CC50 to IC50) (enterovirus 71 (EV71) [12]; EV71, HL-CZ cells): 5540; IC50 (enterovirus 71 (EV71) [12]; Enterovirus A, EV71, 48 h): 0.52 ± 0.03 µg/mL (≈ 1.92 µM); increase in IFNα expression (IFNα expression): 2.5 fold; time-dependent inhibition of JEV replication [1, 13]: significantly inhibited; IC50 ([1]; TE-671, read-out: IC50 for JEV): 0.5 to 1.51 µg/mL (≈ 1.85 to 5.59 µM); therapeutic index (TI) for anti-JEV activity ([1]; over TE-671 and HL-CZ cells): > 1500
